Experimental findings from ChEMBL document CHEMBL5518164, “Membrane-permeable tenofovir-di- and monophosphate analogues” (Eur J Med Chem, 2024) are described below.

The source made the active and inactive calls. No cut-off for these calls is given here.

Data set [1] can be described thus: Drug hydrolysis in phosphate buffer saline incubated for 100 hrs in presence of pig liver esterase at pH 7.3 by RP18-HPLC analysis. Format: ADME, Sus scrofa. The note with it: read-out: Drug degradation.
Data set [2] is described as follows: Drug metabolism in phosphate buffer saline assessed as gamma-monoalkylated metabolite formation in presence of pig liver esterase at pH 7.3 by RP18-HPLC analysis. Format: ADME, Sus scrofa. As to conditions: isolated protein.
The nature of data set [3]: Drug metabolism in phosphate buffer saline assessed as Tenofovir diphosphate formation in presence of pig liver esterase at pH 7.3 by RP18-HPLC analysis. As to conditions: isolated protein. Format: ADME, Sus scrofa.
Data set [4] in a line: Drug metabolism in human CEM/0 cell extracts assessed as Tenofovir monophosphate formation by RP18-HPLC analysis. Format: ADME. The note with it: ccrf-cem.
Data set [5] has as its target T1, DNA polymerase alpha catalytic subunit (Homo sapiens) (UniProt P09884).
T1 sequence (whole entry): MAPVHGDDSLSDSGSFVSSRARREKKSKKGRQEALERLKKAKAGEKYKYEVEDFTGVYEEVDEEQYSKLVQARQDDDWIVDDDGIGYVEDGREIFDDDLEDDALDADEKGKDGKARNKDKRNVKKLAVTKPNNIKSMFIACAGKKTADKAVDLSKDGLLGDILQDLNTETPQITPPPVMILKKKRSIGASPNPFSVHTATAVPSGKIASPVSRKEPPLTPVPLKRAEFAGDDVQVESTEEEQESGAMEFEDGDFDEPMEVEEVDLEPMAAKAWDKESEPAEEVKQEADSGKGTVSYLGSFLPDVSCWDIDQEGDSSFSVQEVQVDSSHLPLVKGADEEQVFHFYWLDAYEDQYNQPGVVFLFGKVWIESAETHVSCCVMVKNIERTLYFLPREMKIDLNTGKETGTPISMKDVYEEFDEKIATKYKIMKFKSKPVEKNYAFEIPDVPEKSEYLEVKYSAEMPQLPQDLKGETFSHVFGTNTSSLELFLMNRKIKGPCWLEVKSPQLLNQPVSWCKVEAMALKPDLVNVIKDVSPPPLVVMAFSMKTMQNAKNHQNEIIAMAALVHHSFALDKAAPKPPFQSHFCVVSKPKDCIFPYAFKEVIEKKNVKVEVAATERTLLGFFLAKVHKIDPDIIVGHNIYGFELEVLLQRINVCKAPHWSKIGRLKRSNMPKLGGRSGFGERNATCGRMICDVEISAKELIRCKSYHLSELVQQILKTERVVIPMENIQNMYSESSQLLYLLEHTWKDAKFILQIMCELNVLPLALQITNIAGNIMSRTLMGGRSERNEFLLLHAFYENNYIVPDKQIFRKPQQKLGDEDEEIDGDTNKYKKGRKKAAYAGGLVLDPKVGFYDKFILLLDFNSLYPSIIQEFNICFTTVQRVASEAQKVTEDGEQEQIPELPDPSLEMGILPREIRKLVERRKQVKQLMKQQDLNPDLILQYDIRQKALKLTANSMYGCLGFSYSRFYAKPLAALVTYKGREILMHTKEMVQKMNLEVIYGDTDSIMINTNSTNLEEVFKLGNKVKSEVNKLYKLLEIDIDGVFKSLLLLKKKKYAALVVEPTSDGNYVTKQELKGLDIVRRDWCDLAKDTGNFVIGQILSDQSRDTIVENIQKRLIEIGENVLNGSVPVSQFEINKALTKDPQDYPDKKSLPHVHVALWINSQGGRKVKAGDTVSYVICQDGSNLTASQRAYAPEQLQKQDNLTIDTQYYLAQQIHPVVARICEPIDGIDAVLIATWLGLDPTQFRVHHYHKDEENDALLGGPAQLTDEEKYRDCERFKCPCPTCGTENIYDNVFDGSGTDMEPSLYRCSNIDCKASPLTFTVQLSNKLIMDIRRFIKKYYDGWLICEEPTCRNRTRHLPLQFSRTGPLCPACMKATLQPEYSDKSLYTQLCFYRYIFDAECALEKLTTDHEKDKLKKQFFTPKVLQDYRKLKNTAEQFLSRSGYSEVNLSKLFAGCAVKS
Nature of the data set: Substrate activity at human DNA polymerase alpha assessed as n+1 band formation incubated for 60 mins in presence of primer/template mixture and dNTPs by primer extension assay based fluorescence analysis.

Data set [6] can be described thus: Drug metabolism in phosphate buffer saline assessed as (R)-9-(2-(phosphonomethoxy)propyl)adenine formation in presence of pig liver esterase at pH 7.3 by RP18-HPLC analysis. Format: ADME, Sus scrofa. The note with it: isolated protein.
The nature of data set [7]: Drug metabolism in human CEM/0 cell extracts assessed as (R)-9-(2-(phosphonomethoxy)propyl)adenine formation by RP18-HPLC analysis. Format: ADME. The note with it: ccrf-cem.
Data set [8] relates to Human immunodeficiency virus 1. Nature of the data set: Potency index, ratio of Tenofovir EC50 to test compound EC50 for antiviral activity against HIV-1 HE infected in wild type human CEM/0 cells. Format: functional.
For data set [9], the system named is Human immunodeficiency virus 2. Nature of the data set: Potency index, ratio of Tenofovir EC50 to test compound EC50 for antiviral activity against HIV-2 ROD infected in wild type human CEM/0 cells. Format: functional.
The subject of data set [10] is Human immunodeficiency virus 2. As to the kind of experiment: Potency index, ratio of Tenofovir EC50 to test compound EC50 for antiviral activity against HIV-2 ROD infected in thymidine kinase deficient human CEM cells. Format: functional.
Data set [11] can be described thus: Drug hydrolysis in phosphate buffer saline incubated for 500 hrs at pH 7.3 by RP18-HPLC analysis. Format: physicochemical. The note with it: read-out: Drug degradation.
Data set [12] is described as follows: Drug hydrolysis in phosphate buffer saline incubated for 600 hrs at pH 7.3 by RP18-HPLC analysis. Format: physicochemical. As to conditions: read-out: Drug degradation.
A short description of data set [13]: Drug metabolism in human CEM/0 cell extracts assessed as gamma-monoalkylated metabolite formation by RP18-HPLC analysis. Format: ADME. As to conditions: ccrf-cem.
The nature of data set [14]: Drug metabolism in human CEM/0 cell extracts assessed as Tenofovir diphosphate formation by RP18-HPLC analysis. The note with it: ccrf-cem. Format: ADME.

For `CCCCCCCCCCCCCCCCCCOP(=O)(OCCCC)OP(=O)(O)OP(=O)(O)CO[C@H](C)Cn1cnc2c(N)ncnc21` (stereo not given in full), the metabolised at 100 h in [1] was 31%. Besides, the values for the Drug metabolism entry in data set [2], in [3] and in [4] were “Metabolite_Notdetected”, “Metabolite_Notdetected” and “Metabolite_Detected”, respectively. The result in data set [5] was inactive.
As for `CCCCCCCCCCCCCCCCCCP(=O)(OCCCC)OP(=O)(O)CO[C@H](C)Cn1cnc2c(N)ncnc21` (stereo not given in full), the Drug metabolism entry in data set [6] and in [7] was “Metabolite_Detected” each time. Further, the outcome in data set [5] was inactive. Besides, the entries for the “Ratio EC50” value in [8], in data set [9] and in data set [10] were 59, 567 and 326, respectively.
With `CCCCCCCCCCCCCCCCCCP(=O)(OCCCC)OP(=O)(O)OP(=O)(O)CO[C@H](C)Cn1cnc2c(N)ncnc21` (stereo not given in full), the degraded at 500 h in [11] turned out to be 40%. In addition, the degraded at 600 h in data set [12] came out at 45%. For the same compound, the metabolised at 100 h in [1] worked out at 16%. The Drug metabolism entry in data set [2] is “Metabolite_Notdetected”; in data set [3], “Metabolite_Notdetected”; in data set [4], “Metabolite_Detected”; in [13], “Metabolite_Notdetected”; in data set [14] it was “Metabolite_Notdetected”. In addition, in data set [5], the result was inactive.
